Here are results for 28 compounds from US7595398B2, “N-(5-membered aromatic ring)-amido anti-viral compounds” (SmithKline Beecham Corporation, priority 2005, dated 2009).

Structures can show the parent of a compound that is named as a salt.

Broadly, the inhibition is the drop in the measured response relative to a control, in per cent.

This experiment has as its system HCV replicon I389luc-ubi-neo/NS3-3′/ET in ET (Huh-lucubineo-ET) cells; screening for HCV RNA dependent RNA polymerase. Briefly: Replicon Assay (luciferase, ET cell line Huh-lucubineo-ET). Conditions: Hepatitis C virus; inhibition of replication relative to no compound control; test concentration of 10 μM according to the fitted equation; luciferase 48-72 hours. Type of experiment: cell-based. On the procedure: A cell line, ET (Huh-lucubineo-ET) was used for screening of compounds of the present invention for HCV RNA dependent RNA polymerase. The ET cell line was stably transfected with RNA transcripts harboring a I389luc-ubi-neo/NS3-3′/ET; replicon with firefly luciferase-ubiquitin-neomycin phosphotransferase fusion protein and EMCV-IRES driven NS3-5B polyprotein containing the cell culture adaptive mutations (E1202G; T12801; K1846T) (Krieger at al, 2001 and unpublished). The ET cells were grown in DMEM, supplemented with 10% fetal calf serum, 2 mM Glutamine, Penicillin (100 IU/mL)/Streptomycin (100 μg/mL), 1× nonessential amino acids, and 250 μg/mL G418 (“Geneticin”). They were all available through Life Technologies (Bethesda, Md.). The cells were plated at 0.5-1.0×10^4 cells/well in the 96 well plates and incubated for 24 hrs before adding nucleoside analogs. […] Luciferase activity were measured 48-72 hours later by adding a lysis buffer and the substrate (Catalog number Glo-lysis buffer E2661 and Bright-Glo luciferase system E2620 Promega, Madison, Wis.). Cells should not be too confluent during the assay. Percent inhibition of replication was plotted relative to no compound control. Under the same condition, cytotoxicity of the compounds was determined using cell proliferation reagent, WST-1(Roche, Germany). The compounds showing antiviral activities, but no significant cytotoxicities were chosen to determine IC50 and TC50. For these determinations, 10 concentrations of each compound were used. Concentrations for test compounds typically span a range of 500 fold. IC50 and TC50 values were calculated by fitting % inhibition at each concentration (I) to the following equation: % inhibition=100%/[1+10^(log IC50−log (I))*b] where b is Hill's coefficient.
In general terms: Replicon systems follow genome replication, usually without infectious particles.
Regarding `O=C(NC1CC1)c1ccc(-c2csc(NC(=O)C3CCC[C@H]3C(=O)NCc3ccccc3)n2)cc1` (mixture of isomers) [Compound 5340, Cyclopentane-1,2-dicarboxylic acid 1-benzylamide 2-{[4-(4-cyclopropylcarbamoyl-phenyl)-thiazol-2-yl]-amide}], testing at 10 µM gave an inhibition of 100%. The value for `O=C(NC1CC1)c1ccc(-c2csc(NC(=O)C3CCCC3C(=O)NCc3ccccc3)n2)cc1` (racemic) [Compound 5382, Cyclopentane-1,2-dicarboxylic acid 1-benzylamide 2-{[4-(4-cyclopropylcarbamoyl-phenyl)-thiazol-2-yl]-amide}] was 100%; that for `CC(C)CC1CC(C)(c2csc(NC(=O)[C@@H]3CCCN3C(=O)OCc3ccccc3)n2)OC1=O` (stereo in doubt) [Compound 5009, 2-[4-(4-Isobutyl-2-methyl-5-oxo-tetrahydro-furan-2-yl)-thiazol-2-ylcarbamoyl]-pyrrolidine-1-carboxylic acid benzyl ester] was 63.4%; that for `CC1(C)CC(c2csc(NC(=O)[C@@H]3CCCN3C(=O)OCc3ccccc3)n2)CCO1` (stereo in doubt) [Compound 5046, 2-[4-(2,2-Dimethyl-tetrahydro-pyran-4-yl)-thiazol-2-ylcarbamoyl]-pyrrolidine-1-carboxylic acid benzyl ester] was 8.29%. As to `O=C(NC1CC1)c1ccc(-c2csc(NC(=O)[C@@H]3CCCN3C(=O)COc3ccccc3)n2)cc1` (stereo in doubt) [Compound 5331, 1-(2-Phenoxy-acetyl)-pyrrolidine-2-carboxylic acid [4-(4-cyclopropylcarbamoyl-phenyl)-thiazol-2-yl]-amide], the inhibition at 10 µM turned out to be 43%. The result for `CC(C)(C)OC(=O)N1CCCC(NC(=O)c2ccc(-c3csc(NC(=O)[C@@H]4CCCN4C(=O)OCc4ccccc4)n3)cc2)C1` (stereo in doubt) [Compound 5365, 3-(4-{2-[(1-Benzyloxycarbonyl-pyrrolidine-2-carbonyl)-amino]-thiazol-4-yl}-benzoylamino)-piperidine-1-carboxylic acid tert-butyl ester] reads 99.9%. The result for `Nc1cccc(-c2csc(NC(=O)C3CCCN3C(=O)OCc3ccccc3)n2)c1` (stereo not shown) [Compound 5001, 2-[4-(3-Amino-phenyl)-thiazol-2-ylcarbamoyl]-pyrrolidine-1-carboxylic acid benzyl ester] reads 99.6%.

`O=C(Nc1nc(-c2ccc3c(c2)OCO3)cs1)[C@@H]1CCCN1C(=O)OCc1ccccc1` [Compound 5002, 2-(4-Benzo[1,3]dioxol-5-yl-thiazol-2-ylcarbamoyl)-pyrrolidine-1-carboxylic acid benzyl ester]: the inhibition at 10 µM came out at 94.7%. The result for `O=C(Nc1nc(CCc2ccccc2)cs1)[C@@H]1CCCN1C(=O)OCc1ccccc1` [Compound 5003, 2-(4-Phenethyl-thiazol-2-ylcarbamoyl)-pyrrolidine-1-carboxylic acid benzyl ester] reads 99.9%. The result for `CS(=O)(=O)Nc1ccc(-c2csc(NC(=O)C3CCCN3C(=O)OCc3ccccc3)n2)cc1` (stereo not shown) [Compound 5004, 2-[4-(4-Methanesulfonylamino-phenyl)-thiazol-2-ylcarbamoyl]-pyrrolidine-1-carboxylic acid benzyl ester] reads 99.9%; that for `Cc1ccc(S(=O)(=O)Nc2ccc(-c3csc(NC(=O)[C@@H]4CCCN4C(=O)OCc4ccccc4)n3)cc2)cc1` [Compound 5005, 2-{4-[4-(Toluene-4-sulfonylamino)-phenyl]-thiazol-2-ylcarbamoyl}-pyrrolidine-1-carboxylic acid benzyl ester], 99.8%.

`O=C(Nc1ccc(-c2csc(NC(=O)C3CCCN3C(=O)OCc3ccccc3)n2)cc1)C1CCCC1` (stereo not shown) [Compound 5006, 2-{4-[4-(Cyclopentanecarbonyl-amino)-phenyl]-thiazol-2-ylcarbamoyl}-pyrrolidine-1-carboxylic acid benzyl ester] had an inhibition at 10 µM of 99.9%. Compound `O=C(Nc1nc(-c2cc3ccccc3oc2=O)cs1)[C@@H]1CCCN1C(=O)OCc1ccccc1` [Compound 5007, 2-[4-(2-Oxo-2H-chromen-3-yl)-thiazol-2-ylcarbamoyl]-pyrrolidine-1-carboxylic acid benzyl ester] yielded an inhibition at 10 µM of 100%. The result for `O=C(Nc1nc(-c2cccc([N+](=O)[O-])c2)cs1)[C@@H]1CCCN1C(=O)OCc1ccccc1` [Compound 5008, 2-[4-(3-Nitro-phenyl)-thiazol-2-ylcarbamoyl]-pyrrolidine-1-carboxylic acid benzyl ester; hydrobromide] reads 63%; that for `O=C(Nc1nc(Sc2nnc(-c3ccccc3)o2)cs1)[C@@H]1CCCN1C(=O)OCc1ccccc1` [Compound 5010, 2-[4-(5-Phenyl-[1,3,4]oxadiazol-2-ylsulfanyl)-thiazol-2-ylcarbamoyl]-pyrrolidine-1-carboxylic acid benzyl ester], 6.41%. Consider `CCCOc1ccc(-c2cnc(NC(=O)[C@@H]3CCCN3C(=O)OCc3ccccc3)s2)cc1` [Compound 5011, 2-[5-(4-Propoxy-phenyl)-thiazol-2-ylcarbamoyl]-pyrrolidine-1-carboxylic acid benzyl ester], for which testing at 10 µM gave an inhibition of 32.9%. The result for `O=C(Nc1ncc(Cc2cccc(Cl)c2Cl)s1)[C@@H]1CCCN1C(=O)OCc1ccccc1` [Compound 5012, 2-[5-(2,3-Dichloro-benzyl)-thiazol-2-ylcarbamoyl]-pyrrolidine-1-carboxylic acid benzyl ester] reads 1.01%; that for `CN(C)c1ccc(-c2csc(NC(=O)C3CCCN3C(=O)OCc3ccccc3)n2)cc1` (stereo not shown) [Compound 5013, 2-[4-(4-Dimethylamino-phenyl)-thiazol-2-ylcarbamoyl]-pyrrolidine-1-carboxylic acid benzyl ester], 97%; that for `O=C(Nc1nc(-c2c(F)c(F)c(F)c(F)c2-c2ccccc2)cs1)[C@@H]1CCCN1C(=O)OCc1ccccc1` [Compound 5014, 2-[4-(3,4,5,6-Tetrafluoro-biphenyl-2-yl)-thiazol-2-ylcarbamoyl]-pyrrolidine-1-carboxylic acid benzyl ester], 66.6%. The value for `CC(=O)Nc1cccc(-c2csc(NC(=O)[C@@H]3CCCN3C(=O)OCc3ccccc3)n2)c1` [Compound 5015, 2-[4-(3-Acetylamino-phenyl)-thiazol-2-ylcarbamoyl]-pyrrolidine-1-carboxylic acid benzyl ester] was 99.4%; that for `COc1ccc(-c2csc(NC(=O)[C@@H]3CCCN3C(=O)OCc3ccccc3)n2)cc1Br` [Compound 5016, 2-[4-(3-Bromo-4-methoxy-phenyl)-thiazol-2-ylcarbamoyl]-pyrrolidine-1-carboxylic acid benzyl ester] was 100%. On to `CCC(=O)Nc1ccc(-c2csc(NC(=O)[C@@H]3CCCN3C(=O)OCc3ccccc3)n2)cc1` [Compound 5017, 2-[4-(4-Propionylamino-phenyl)-thiazol-2-ylcarbamoyl]-pyrrolidine-1-carboxylic acid benzyl ester], for which the inhibition at 10 µM worked out at 99.7%. The value for `O=C(Nc1ccc(-c2csc(NC(=O)C3CCCN3C(=O)OCc3ccccc3)n2)cc1)C1CC1` (stereo not shown) [Compound 5018, 2-{4-[4-(Cyclopropanecarbonyl-amino)-phenyl]-thiazol-2-ylcarbamoyl}-pyrrolidine-1-carboxylic acid benzyl ester] was 100%. The result for `O=C(Nc1cccc(-c2csc(NC(=O)C3CCCN3C(=O)OCc3ccccc3)n2)c1)c1ccccc1` (stereo not shown) [Compound 5019, 2-[4-(3-Benzoylamino-phenyl)-thiazol-2-ylcarbamoyl]-pyrrolidine-1-carboxylic acid benzyl ester] reads 100%; that for `COc1c(F)c(F)c(-c2csc(NC(=O)[C@@H]3CCCN3C(=O)OCc3ccccc3)n2)c(F)c1F` [Compound 5020, 2-[4-(2,3,5,6-Tetrafluoro-4-methoxy-phenyl)-thiazol-2-ylcarbamoyl]-pyrrolidine-1-carboxylic acid benzyl ester], 58.2%; that for `Cc1ccc(-c2csc(NC(=O)[C@@H]3CCCN3C(=O)OCc3ccccc3)n2)c(C)c1` [Compound 5021, 2-[4-(2,4-Dimethyl-phenyl)-thiazol-2-ylcarbamoyl]-pyrrolidine-1-carboxylic acid benzyl ester], 97%.

With `Cc1ccc(-c2csc(NC(=O)[C@@H]3CCCN3C(=O)OCc3ccccc3)n2)cc1` [Compound 5022, 2-(4-p-Tolyl-thiazol-2-ylcarbamoyl)-pyrrolidine-1-carboxylic acid benzyl ester], testing at 10 µM gave an inhibition of 56%. The result for `O=C(Nc1nc(-c2ccc(F)cc2F)cs1)[C@@H]1CCCN1C(=O)OCc1ccccc1` [Compound 5023, 2-[4-(2,4-Difluoro-phenyl)-thiazol-2-ylcarbamoyl]-pyrrolidine-1-carboxylic acid benzyl ester] reads 76.5%.
